Source: patent US20080234280A1, “Use of Mc4 Receptor Agonist Compounds” (priority 2005, published 2008)

System: Female beagle dogs
Experiment: dog urethral pressure profilometry (Test A)
Assay type: in vivo
Details: anaesthetised female beagle dog; for Mean peak urethral pressure (PUP): i.v. infusion over 15 minutes in saline; for PUP increase vs. baseline: i.v. infusion over 15 minutes, baseline (vehicle) PUP 30 mmHg
Experimental: Female beagle dogs (10-15 kg) are anaesthetised with sodium pentobarbitone (60 mg/mL solution) administered intravenously (IV) at 0.5 ml/kg via the right cephalic vein. Immediately following induction of anaesthesia the dog is intubated and respiration supported by artificial ventilation with oxygen. End tidal CO2 is monitored continuously, using a Datex CO2/O2 monitor and maintained between 4.5 and 4.8% and body temperature maintained between 37° C. and 38° C. An incision is made in the right medial thigh and a polyethylene catheter (6F) inserted into the right femoral vein for administration of compounds and fluid maintenance; immediately venous access is achieved a bolus IV dose of α-chloralose (1% w/v) is administered at 35 mg/kg. A polyethylene catheter (4F) is inserted into the right femoral artery for blood sampling. An incision is made in the right foreleg and the brachial vein and artery isolated, maintenance of anaesthesia is achieved with α-chloralose/borax administered IV at the rate of 10 mg/kg/h via a polyethylene catheter (6F) inserted into the right brachial vein. A laparotomy is performed from the umbilicus to the top of the pubic symphysis via the midline to expose the peritoneum in order to expose the bladder. Both ureters are cannulated towards the kidneys with polyethylene catheters (6F) and urine collected externally; the bladder is catheterised through the dome with a polyethylene catheter (6F), which is in turn connected to a pressure transducer. In order to maintain constant bladder pressure at 10-15 mmHg, urine is removed and ambient temperature saline infused into the bladder. Immediately following the completion of the surgical procedures a further bolus dose of α-chloralose/borax solution is administered IV at 35 mg/kg and the animal allowed to stabilise for a period period ca. 1 hr, during which time haemodynamic and urological parameters were monitored.
Urethral tone (peak urethral pressure (PUP), functional urethral length (FUL) and closing pressure (CP)) is assessed with the aid of an 8F Millar pressure transducer (Millar Instruments, Texas, US) inserted into the bladder through the external meatus. The urethral Millar pressure transducer is then retracted along the length of the urethra (urethral pull through) at a rate of 1 cm/min enabling the determination of PUP, FUL and CP. Urethral pull throughs are repeated every 6 min until at least 4 reproducible urethral profiles are observed. Subsequently increasing concentrations of test compound or vehicle is injected intravenously utilising either a bolus dose or constant infusion and at least a further 4 urethral pull throughs carried out at each concentration investigated. Changes in the PUP, FUL or CP are indicative of compound activity on lower urinary tract function. • Investigation of bladder capacity and external urethral sphincter (EUS) function in the spontaneously hypertensive rat:
was tested in the dog urethral pressure model (Test A) described above. The compound was dissolved in saline (vehicle) and administered by i.v. infusion over a period of 15 minutes, with at least 5 urethral pressure measurements being taken at each dose level during infusion and for 15 minutes post-infusion.

For `CO[C@H]1CN(C(=O)[C@@H]2CN(c3cccnn3)C[C@H]2c2ccc(F)cc2F)CC[C@]1(OC)c1ccccc1` [Example 8], which “Mean peak urethral pressure (PUP)” value (dose 1.0 mg/kg) is on record?
Its value is 32 mmHg.

What about the “Mean peak urethral pressure (PUP)” value (dose 2.0 mg/kg) of the same molecule?
Its value is 36 mmHg.

And the “Mean peak urethral pressure (PUP)” value (dose 3.0 mg/kg)?
The value was 35 mmHg.

And the “PUP increase vs. baseline” value (dose 1.0 mg/kg)?
Its value is 7%.

What about the “PUP increase vs. baseline” value (dose 2.0 mg/kg) of the same molecule?
Its value is 20%.

What about the “PUP increase vs. baseline” value (dose 3.0 mg/kg) of the same molecule?
Its value is 17%.
